Experimental data published in PubChem BioAssay AID248 (DTP/NCI, 2004).
Toxic doses and inconclusive results are not listed.

Test system: L1210 leukemia ip in BDF1 mice, survival T/C
Experiment: NCI In Vivo Anticancer Drug Screen. Data for tumor model L1210 Leukemia (intraperitoneal) in B6D2F1 (BDF1) mice
Settings: endpoint: mean survival time, higher = longer survival
Summary of the method: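 Read-out is survival time, reported as the treated-group measurement over the vehicle-control measurement.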

## CN(C)N=Nc1ccccc1C(N)=O
dose: 20.0 mg/kg/injection, schedule: Q01DX009 (ip), vehicle: Klucel (hydroxypropylcellulose) (HPC)
  T/C: 110 % of control
dose: 30.0 mg/kg/injection, schedule: Q01DX009 (ip), vehicle: Klucel (hydroxypropylcellulose) (HPC)
  T/C: 110 % of control
dose: 31.25 mg/kg/injection, schedule: Q01DX009 (ip), vehicle: saline with Tween-80
  T/C: 108 % of control
dose: 37.25 mg/kg/injection, schedule: Q01DX009 (ip), vehicle: saline with Tween-80
  T/C: 112 % of control
dose: 37.5 mg/kg/injection, schedule: Q04DX003 (ip), vehicle: saline with Tween-80
  T/C: 108 % of control
dose: 45.0 mg/kg/injection, schedule: Q01DX009 (ip), vehicle: Klucel (hydroxypropylcellulose) (HPC)
  T/C: 119 % of control
dose: 55.25 mg/kg/injection, schedule: Q04DX003 (ip), vehicle: saline with Tween-80
  T/C: 104 % of control
dose: 62.5 mg/kg/injection, schedule: Q01DX001 (ip), vehicle: saline with Tween-80
  T/C: 111 % of control
dose: 67.0 mg/kg/injection, schedule: Q01DX009 (ip), vehicle: other
  T/C: 120 % of control
dose: 67.0 mg/kg/injection, schedule: Q01DX009 (ip), vehicle: saline with Tween-80
  T/C: 102 % of control
dose: 74.5 mg/kg/injection, schedule: Q01DX009 (ip), vehicle: saline with Tween-80
  T/C: 119 % of control
dose: 75.0 mg/kg/injection, schedule: Q01DX001 (ip), vehicle: other
  T/C: 107 % of control
dose: 75.0 mg/kg/injection, schedule: Q04DX003 (ip), vehicle: saline with Tween-80
  T/C: 116 % of control
dose: 100.0 mg/kg/injection, schedule: Q01DX009 (ip), vehicle: saline with Tween-80
  T/C: 109 % of control
dose: 110.5 mg/kg/injection, schedule: Q04DX003 (ip), vehicle: saline with Tween-80
  T/C: 122 % of control
dose: 125.0 mg/kg/injection, schedule: Q01DX001 (ip), vehicle: saline with Tween-80
  T/C: 110 % of control
dose: 125.0 mg/kg/injection, schedule: Q01DX009 (ip), vehicle: saline with Tween-80
  T/C: 86 % of control
dose: 149.0 mg/kg/injection, schedule: Q01DX009 (ip), vehicle: saline with Tween-80
  T/C: 156 % of control
dose: 150.0 mg/kg/injection, schedule: Q01DX001 (ip), vehicle: other
  T/C: 107 % of control
dose: 150.0 mg/kg/injection, schedule: Q01DX001 (ip), vehicle: saline with Tween-80
  T/C: 109 % of control
dose: 150.0 mg/kg/injection, schedule: Q01DX009 (ip), vehicle: other
  T/C: 150 % of control
dose: 150.0 mg/kg/injection, schedule: Q01DX009 (ip), vehicle: saline with Tween-80
  T/C: 117 % of control
dose: 150.0 mg/kg/injection, schedule: Q04DX003 (ip), vehicle: saline with Tween-80
  T/C: 120 % of control
dose: 221.0 mg/kg/injection, schedule: Q04DX003 (ip), vehicle: saline with Tween-80
  T/C: 150 % of control
dose: 300.0 mg/kg/injection, schedule: Q01DX001 (ip), vehicle: other
  T/C: 123 % of control
dose: 300.0 mg/kg/injection, schedule: Q04DX003 (ip), vehicle: saline with Tween-80
  T/C: 106 % of control

## COc1ccc(NC(=O)c2cccc([N+](=O)[O-])c2)cc1
dose: 100.0 mg/kg/injection, schedule: Q01DX009 (ip), vehicle: Klucel (hydroxypropylcellulose) (HPC)
  T/C: 96 % of control
dose: 200.0 mg/kg/injection, schedule: Q01DX009 (ip), vehicle: Klucel (hydroxypropylcellulose) (HPC)
  T/C: 93 % of control
dose: 400.0 mg/kg/injection, schedule: Q01DX009 (ip), vehicle: Klucel (hydroxypropylcellulose) (HPC)
  T/C: 96 % of control

## N/N=C(\c1ccccc1)c1ccc(Cl)cc1
dose: 100.0 mg/kg/injection, schedule: Q01DX001 (ip), vehicle: carboxymethylcellulose (CMC)
  T/C: 96 % of control
dose: 200.0 mg/kg/injection, schedule: Q01DX001 (ip), vehicle: carboxymethylcellulose (CMC)
  T/C: 87 % of control
dose: 400.0 mg/kg/injection, schedule: Q01DX001 (ip), vehicle: carboxymethylcellulose (CMC)
  T/C: 95 % of control
